The text below walks through data of article PMC3502291, “Identification of Small Molecule Inhibitors of PTPσ through an Integrative Virtual and Biochemical Approach” (PLoS ONE, 2012).

Common to all, as to type: biochemical
Assay [1] deals with T1, PTPσ (Homo sapiens, UniProt Q13332).
T1 construct: gene PTPRS; GST-tagged recombinant PTPσ, all residues C-terminal to the transmembrane domain (BC104812 cDNA; aa 883-1501)
T1 sequence (Q13332 1330-1948): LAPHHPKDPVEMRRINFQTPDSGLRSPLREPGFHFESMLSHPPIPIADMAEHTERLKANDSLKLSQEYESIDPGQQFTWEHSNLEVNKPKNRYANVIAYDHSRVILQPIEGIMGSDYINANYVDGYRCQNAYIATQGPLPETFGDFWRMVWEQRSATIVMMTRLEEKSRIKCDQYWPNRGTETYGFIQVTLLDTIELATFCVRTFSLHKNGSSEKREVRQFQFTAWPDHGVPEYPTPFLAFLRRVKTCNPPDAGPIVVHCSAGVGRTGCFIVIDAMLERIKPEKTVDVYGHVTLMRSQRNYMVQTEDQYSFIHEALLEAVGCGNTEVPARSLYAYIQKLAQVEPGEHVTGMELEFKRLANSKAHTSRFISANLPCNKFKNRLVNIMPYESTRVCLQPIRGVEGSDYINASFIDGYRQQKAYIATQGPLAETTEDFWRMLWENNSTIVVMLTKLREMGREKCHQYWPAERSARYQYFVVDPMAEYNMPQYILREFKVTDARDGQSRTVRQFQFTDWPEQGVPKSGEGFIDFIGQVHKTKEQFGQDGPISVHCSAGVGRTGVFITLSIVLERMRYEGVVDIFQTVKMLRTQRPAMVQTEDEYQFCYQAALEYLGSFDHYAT
In words: pNPP phosphatase assay with purified GST-PTPσ, positive control.

Assay [2] concerns the target T1, PTPσ. As to the kind of experiment: pNPP phosphatase assay with purified GST-PTPσ, dose-response, with and without catalase.
Assay [3] deals with T1, PTPσ. In words: Km from initial velocities of dephosphorylation ([…] nm absorbance).

Regarding `[O]=[V]([OH])([OH])[OH]` [Na3VO4, sodium orthovanadate], the “pNPP phosphatase assay with purified GST-PTPσ, positive control” value in assay [1] was “Sodium orthovanadate (Na3VO4) is a pan inhibitor of PTPs and was included as a positive control”. In the case of `O=C(C=CNc1cc([N+](=O)[O-])ccc1O)c1ccc(Cl)c(Cl)c1` [compound 36, 1-(3,4-dichlorophenyl)-3-[(2-hydroxy-5-nitrophenyl)amino]-2-propen-1-one], the IC50 in assay [2] was 10 µM. For the compound para-nitrophenyl phosphate [pNPP], in assay [3], the Km was 250 µM.
